The results in this text go back to US11046700B2, “Substituted imidazo[1,2-a]pyrazines, pyrazolo[1,5-c]pyrimidines, pyrazolo[1,5-a]pyridines, and purines for the treatment of schistosomiasis” (Merck Patent GmbH, priority 2017, dated 2021).

Data set [1] relates to S. mansoni adult worms. Put plainly: In vitro assay, S. mansoni adult worms. The format is cell-based. Conditions: Schistosoma mansoni; S. mansoni adult worms, in vitro; read-out: (a) Adult.
Data set [2] concerns S. mansoni juvenile worms. Put plainly: In vitro assay, S. mansoni juvenile worms. The format is cell-based. Conditions: Schistosoma mansoni; S. mansoni juvenile worms, in vitro; read-out: (b) Juvenile.
The test system of data set [3] is S. haemotobium adult worms. The experiment in a line: In vitro assay, S. haemotobium adult worms. To be noted: read-out: (c) S. haemotobium. In kind it is cell-based. The procedure:
(§1) The routine biological assays using adult or juvenile worms and cytotoxicity assays using MRC-5 cells have been disclosed previously in Mansour, N. R., et al. (2016). “High Throughput Screening Identifies Novel Lead Compounds with Activity against Larval, Juvenile and Schistosoma mansoni PLoS Negl Trap Dis 10(4): e0004659. Cytotoxicity assays using the HepG2 cell line were carried out as described in Molecular Diversity (2015) 19, 251-261.
(c) S. haemotobium adult worms

Data set [4] concerns MRC-5 cells. Put plainly: Cytotoxicity against human MRC-5 cell line. The format is cell-based. The procedure: as §1
(d) Cytotoxicity against human MRC-5 cell line

Data set [5] deals with HepG2 cell line. The experiment in a line: Cytotoxicity against human HepG2 cell lines. The format is cell-based.
Data set [6] relates to S. mansoni juvenile worms. Put plainly: Mouse infection model, juvenile worms, oral treatment day 25 post infection, worm recovery. Conditions: mice. In kind it is in vivo, Schistosoma mansoni. The procedure: (§2) Methods for the subcutaneous infection of mice and subsequent worm recovery were as described in Mansour et al (2016) except that infection was with 150 cercariae and the perfusion medium was citrate saline (0.9% sodium chloride, 1.5% tri-sodium citrate). Perfusion was carried out 8 days (adult infections) or 15 days (juvenile infections) after treatment. Perfuseate was collected into 30 mL universal tubes. RBC (Red Blood Cells) were removed by allowing the perfuseate to settle for 10 min, removal of most of the supernatant and washing once as above with 10 mL perfusion medium. A drop of dilute aqueous saponin solution was added to lyse any remaining RBC and the worm suspension poured into a grid-marked small petri dish. The tube was rinsed out into the petri dish and examined for any remaining worms. Worms were counted using a dissecting microscope. The mouse livers removed after perfusion were squashed between two thick glass plates and examined visually and any remaining worms added to those counted as above.
(§3) For testing efficacy against the juvenile worms, treatment was on day 25 post infection and for testing against the adult worms on day 42 post infection. Drugs were suspended in 7% Tween-80/3% Ethanol/double distilled water and drug dispersal was facilitated by vortexing and using a sonicating water bath (Formulation F1). Alternatively, drugs were suspended in 10% DMSO, 90% double distilled water containing 50 mM Na2HPO4 with 0.5% Tween-80 by first dissolving or suspending the drug in DMSO then adding the DMSO solution/suspension to the aqueous solution (Formulation F2). In a further set of conditions, drugs were first dissolved in DMSO, then diluted with corn oil to give a 5% DMSO+drug solution/suspension (Formulation F3)
(§4) The drug solution/suspensions were given by oral gavage at the rate of 10 ml/kg. Positive controls (artemether for juvenile worms and praziquantel for adult worms) were used in each experiment.

Data set [7] deals with S. mansoni adult worms. Put plainly: Mouse infection model, adult worms, oral treatment day 42 post infection, worm recovery. The format is in vivo, Schistosoma mansoni. To be noted: mice, oral 200 mg/kg, Formulation F1, negative control 38.8 ± 5.4. As to the method: as §2, §3, §4
Where [8] appears, read: oral 6.25 mg/kg, Formulation F3, negative control 32.6 ± 10.6.

As for `COc1cc(-c2c(C(C)C)nc3cnc(-c4cccc(C(F)(F)F)c4)cn23)cc2cn[nH]c12` [Example 22, 7-methoxy-5-{2-(propan-2-yl)-6-[3-trifluoromethylphenyl]imidazo[1,2-a]pyrazin-3-yl}-1H-indazole], the IC50 in data set [1] is 430 nM; in data set [2], 530 nM; in data set [3], 150 nM.
Regarding `CCc1nc2cnc(-c3cccc(C(F)(F)F)c3)cn2c1-c1ccc(O)cc1F` [Example 8, 3-fluoro-4-[2-ethyl-6-[3-(trifluoromethyl)phenyl]imidazo[1,2-a]pyrazin-3-yl]phenol], the IC50 in data set [1] was 100 nM; in data set [2] it was 86 nM; in data set [3] it was less than 1560 nM. The “(d) Cytotox MRC-5” value in data set [4] stood at 17.3 µM. Also, in data set [5], the “(e) Cytotox HepG2” value worked out at 18.7 µM.
With `Fc1ccc(-c2cn3c(-c4ccc5[nH]ncc5c4F)c(C(F)(F)F)nc3cn2)cc1C(F)(F)C(F)(F)F` [Example 63, 3-(4-Fluoro-1H-indazol-5-yl)-6-(4-fluoro-3-pentafluoroethyl-phenyl)-2-trifluoromethyl-imidazo[1,2-a]pyrazine], the results for the IC50 in data set [1], in data set [2] and in data set [3] were 11 nM, 10 nM and less than 6 nM, respectively. Moreover, the “(e) Cytotox HepG2” value in data set [5] was 11.7 µM. The Mean worm recovery in data set [6] (setting [8]) is on record as 0.6 ± 1.0. The compound further gave a Percent worm reduction in data set [6] (setting [8]) of 98%.
Turning to `COc1ccc(-c2c(C(C)C)nc3cnc(-c4cccc(C(F)(F)F)c4)cn23)cc1O` [Example 1, 2-methoxy-5-[2-(propan-2-yl)-6-[3-(trifluoromethyl)phenyl]imidazo[1,2-a]pyrazin-3-yl]phenol], the IC50 in data set [1] is 58 nM; in data set [2] it was 13 nM; in data set [3] it was less than 195 nM. For the same compound, in data set [4], the “(d) Cytotox MRC-5” value turned out to be 21.8 µM. Besides, in data set [5], the “(e) Cytotox HepG2” value is greater than 11.1 µM.
As to `CC(C)c1nc2cnc(-c3ccc(F)c(C(F)(F)F)c3)cn2c1-c1c(F)cc(O)cc1F` [Example 17, 3,5-difluoro-4-[2-(propan-2-yl)-6-[4-fluoro-3-(trifluoromethyl)phenyl]imidazo[1,2-a]pyrazin-3-yl]phenol], the IC50 in data set [1] was found to be 44 nM; in data set [2] it was 26 nM; in data set [3], 23 nM. Moreover, in data set [5], the “(e) Cytotox HepG2” value turned out to be 7.1 µM. In addition, the Mean worm recovery was found to be 0.3 ± 0.8 in data set [7]; 20.6 ± 8.5 in data set [6] (oral 50 mg/kg, Formulation F1, negative control 33.0 ± 7.2); 5.2 ± 3.1 in data set [6] (oral 200 mg/kg, Formulation F1, negative control 33.0 ± 7.2). Besides, the Percent worm reduction in data set [7] is recorded as 99%.
On to `Cc1nc2cnc(-c3ccc(F)c(C(F)(F)F)c3)cn2c1-c1ccc(O)cc1F` [Example 10, 3-fluoro-4-[2-methyl-6-[4-fluoro-3-(trifluoromethyl)phenyl]imidazo[1,2-a]pyrazin-3-yl]phenol], for which the figures for the IC50 in data set [1] and in data set [2] were less than 780 nM and 530 nM, respectively. Further, in data set [4], the “(d) Cytotox MRC-5” value is 14.4 µM. Further, the “(e) Cytotox HepG2” value in data set [5] was greater than 11.1 µM.
Consider `Cc1nc2cnc(-c3ccc(F)c(C(F)(F)F)c3)cn2c1-c1c(F)cc(O)cc1F` [Example 16, 3,5-difluoro-4-[2-methyl-6-[4-fluoro-3-(trifluoromethyl)phenyl]imidazo[1,2-a]pyrazin-3-yl]phenol], for which the IC50 amounted to 120 nM in data set [1], 220 nM in data set [2] and 40 nM in data set [3]. Moreover, the “(e) Cytotox HepG2” value in data set [5] is 7.6 µM.
